Results reported in patent US5514662A, “Use of amphotericin B derivatives as protease inhibitors” (priority 1991, dated 1996).

Experiments:
CD4 = experiment: Membrane expression of CD4 in HIV-1 infected Jurkat and CEM cells; format: cell-based, human; settings: 10 μM continuous, 8th day
Experimental: (§1) Membrane expression of CD4 and gp120 is measured by means of the monoclonal antibodies OKT4 (0,5 μg/ml), 110-4 (2 μg/ml) respectively, which are stained using a […].
(§2) The fluorescence is measured by means of a FACSTAR cell counter (BECTON DICKINSON, MOUNTAIN VIEW, Calif.). The results are expressed as mean fluorescence intensity.
The CD4-specific monoclonal antibody (OKT4 was bought from ORTHO PHARMACEUTICAL CORPORATION (Raritan, N.J.).
(§3) Immunofluorescence analyses are carried out on the 8th day of the infection in order to verify whether the inhibition of HIV replication by DABF-AmB results in 10 a reduced membrane expression of viral antigens.

HRV14 [1] = experiment: Direct virucidal effect on HRV14 (preincubation of virus); format: cell-based; settings: HRV14 preincubated 5 hours at 37° C.
Experimental: When the suspension of HRV14 is preincubated at 37° C. in the presence of DABF-AmB for 5 hours, no inhibition of the cytopathogenic effect is observed compared with a control suspension incubated under the same conditions in the absence of DABF-AmB.

HIV (cellular viraemia) = experiment: Cellular viraemia of AIDS patients' lymphocytes (p24 in supernatants); format: cell-based
Experimental: Lymphocytes from AIDS patients (<200CD4) are isolated on a Ficoll gradient using heparinised blood. The cells are taken up in RPMI 1640 medium containing antibiotics, 10 U/ml of recombinant IL2 (Boeringher) and anti-interferon alpha serum (anti-IFNα, Sigma) plus 10% of foetal calf serum. The cells are cultured in 24-well plates in an amount of 5×10^5 cells per well for the first concentration and then subjected to 5 fold serial dilutions in the same medium. Half of the medium is replaced twice weekly. Every week, 3×10^5 fresh allogeneic PBMCs, derived from healthy donors, are added to the cultures. The cultures are kept for 28 days in the presence of varying concentrations of DABF-AmB. Vital production is measured weekly by assaying the protein p24 in the supernatants. Each culture and each assay are carried out in duplicate.
The symbols (-) denote that the amount of p24 detected is at least 95% less than the values obtained in the untreated control cultures. […] The results obtained in the LOU patient indicates either a resistance of the virus to the product, or a too high initial viral content. These experiments made it possible to evaluate the IC50 for DABF-AmB at between 1 and 5 μM for the different viral isolates (IC50=Concentrationof the product inhibiting 50% of the p24 titer in the culture supernatants, for a patient cells dilution corresponding to a viral content equivalent to 10TCID50.

chymotrypsin = experiment: Activity of DABF-AmB on various proteases: chymotrypsin; format: biochemical; settings: 1 μM
Experimental: DABF-AmB was tested, at a concentration of 1 μM, on various proteases (papain, chymotrypsin, kallicrein, leucocyte elastase, cathopsin D and recombinant protease p10) under conditions and in the presence of substrates appropriate for each of the proteases tested.

reverse transcriptase = biological target: T1, reverse transcriptase (Human immunodeficiency virus type 1 (BRU ISOLATE), UniProt P03367); experiment: Direct action on reverse transcriptase in vitro; format: biochemical
T1 construct: probably viral enzyme of LAV/BRU (LAI) culture supernatant

gp120 = experiment: Membrane expression of gp120 in HIV-1 infected Jurkat and CEM cells; format: cell-based; settings: 10 μM continuous, both cell lines, 8th day
Experimental: as §1, §2
The anti-gpl10 monoclonal antibody 110-4 (GENETIC SYSTEMS CORP., Seattle, Wash.) also recognizes gP120 at the surface of the T cells.
as §3

HeLa-Ohio cells = experiment: Cytotoxicity in HeLa-Ohio cells; format: cell-based, human; settings: 20 μM for 4 weeks
HRV14 [2] = experiment: Cytopathogenic effect of HRV14 in HeLa-Ohio cells; format: cell-based
Experimental: HeLa-Ohio cells cultured until they have become confluent, are infected with a suspension of HRV14 virus. The cytopathogenic effect of the virus is evaluated by staining the cells with a 0.5% solution of crystal violet and 20% of methanol; after rinsing the plates with water, the optical density is read at 550 nm.
For the rest of the experiment, the cells are infected with a viral suspension with a titre such that 50% of the cells are killed after 3 days on control cells not receiving any treatment. 1 hour after the infection, the test product (AmB or DABF-AmB) is added at concentrations ranging from 0.03 to 100 μM. The percentage inhibition of the cytopathogenic effect is determined as follows:
OD (treated infected cells)-OD (infected cells)!
OD (healthy cells)-OD (infected cells)!
The effect of the addition of DABF-AmB was tested at various times: preincubation of the cells with DABF-AmB before the viral infection; addition of DABF-AmB at the time of the infection; addition of DABF-AmB after the infection, during the period of viral proliferation.

human thymocytes = experiment: Distribution of CD4 and CD8 cells in uninfected activated thymocytes; format: cell-based
Experimental: Human thymuses were obtained during corrective heart surgery operations on 3 to 7 year old children. The tissues were cut into fragments and the red blood cells were removed by treating with […] buffer. After washing in PBS buffer, cellular suspensions were prepared in an RPMI 1640 medium containing 10% of human serum type […]. Dead cells were removed by passing over a sterile nylon wool column.
The cells were infected with HIV LAV/BRU as indicated above in the general procedures, and then re-inoculated in the presence of PHA, of anti-CD2 or anti-CD3 antibodies and of IL2 and cultured for 10 days at a rate of 1×10^7 cells/ml. After 10 days, viral production was evaluated by measuring the RT activity in the supernatants and the distribution of CD4/CD8 was evaluated by double fluorescence flow cytometry by means of FITC-labelled anti-CD4 antibodies (OKT4) and phycoerythrin-labelled anti-CD8 antibodies (OKT8). DABF-AmB was added to the cultures immediately after infection and maintained during the entire duration of the culture.

## C[C@@H]1[C@H](O)[C@@H](C)/C=C/C=C/C=C/C=C/C=C/C=C/C=C/[C@H](O[C@@H]2O[C@H](C)[C@@H](O)[C@H](NCC(=O)[C@@H](O)[C@@H]3OC(c4ccccc4)OC[C@H]3O)[C@@H]2O)C[C@@H]2O[C@](O)(C[C@@H](O)C[C@@H](O)[C@H](O)CC[C@@H](O)C[C@@H](O)CC(=O)O[C@H]1C)C[C@H](O)[C@H]2C(=O)O (stereo partly drawn) [DABF-AmB, 1-deoxy-1-amino-4,6-O-benzylidene-D-fructosyl-AmB]
CD4
  level of the membrane antigen CD4: increases until it reaches that for the uninfected cells
HRV14 [1]
  inhibition of the cytopathogenic effect after preincubation of virus (direct virucidal effect): no direct virucidal effect
HIV (cellular viraemia); 8 different patients
  number of patients in which cellular viraemia is inhibited: 7 out of 8
HIV (cellular viraemia); Human immunodeficiency virus 1, Lymphocyte, read-out: IC50 (concentration inhibiting 50% of the p24 titer in the culture supernatants)
  IC50: 1 to 5 µM
HIV (cellular viraemia); patient SAM + MS, day 0
  cellular viraemia (p24): - (the amount of p24 detected is at least 95% less than the values obtained in the untreated control cultures)
HIV (cellular viraemia); patient SAM + MS, day 14
  cellular viraemia (p24): - (the amount of p24 detected is at least 95% less than the values obtained in the untreated control cultures)
HIV (cellular viraemia); patient five + MS, day 0
  cellular viraemia (p24): - (the amount of p24 detected is at least 95% less than the values obtained in the untreated control cultures)
HIV (cellular viraemia); patient five + MS, day 7
  cellular viraemia (p24): - (the amount of p24 detected is at least 95% less than the values obtained in the untreated control cultures)
HIV (cellular viraemia); patient four + MS, day 0
  cellular viraemia (p24): - (the amount of p24 detected is at least 95% less than the values obtained in the untreated control cultures)
HIV (cellular viraemia); patient four + MS, day 7
  cellular viraemia (p24): - (the amount of p24 detected is at least 95% less than the values obtained in the untreated control cultures)
HIV (cellular viraemia); patient four + MS, day 14
  cellular viraemia (p24): - (the amount of p24 detected is at least 95% less than the values obtained in the untreated control cultures)
HIV (cellular viraemia); patient four + MS, day 21
  cellular viraemia (p24): - (the amount of p24 detected is at least 95% less than the values obtained in the untreated control cultures)
HIV (cellular viraemia); patient four + MS, day 28
  cellular viraemia (p24): - (the amount of p24 detected is at least 95% less than the values obtained in the untreated control cultures)
HIV (cellular viraemia); patient one + MS, day 0
  cellular viraemia (p24): - (the amount of p24 detected is at least 95% less than the values obtained in the untreated control cultures)
HIV (cellular viraemia); patient one + MS, day 7
  cellular viraemia (p24): - (the amount of p24 detected is at least 95% less than the values obtained in the untreated control cultures)
HIV (cellular viraemia); patient seven + MS, day 0
  cellular viraemia (p24): - (the amount of p24 detected is at least 95% less than the values obtained in the untreated control cultures)
HIV (cellular viraemia); patient seven + MS, day 14
  cellular viraemia (p24): - (the amount of p24 detected is at least 95% less than the values obtained in the untreated control cultures)
HIV (cellular viraemia); patient six + MS, day 0
  cellular viraemia (p24): - (the amount of p24 detected is at least 95% less than the values obtained in the untreated control cultures)
HIV (cellular viraemia); patient six + MS, day 14
  cellular viraemia (p24): - (the amount of p24 detected is at least 95% less than the values obtained in the untreated control cultures)
HIV (cellular viraemia); patient three + MS, day 0
  cellular viraemia (p24): - (the amount of p24 detected is at least 95% less than the values obtained in the untreated control cultures)
HIV (cellular viraemia); patient three + MS, day 7
  cellular viraemia (p24): - (the amount of p24 detected is at least 95% less than the values obtained in the untreated control cultures)
HIV (cellular viraemia); patient three + MS, day 14
  cellular viraemia (p24): - (the amount of p24 detected is at least 95% less than the values obtained in the untreated control cultures)
HIV (cellular viraemia); patient three + MS, day 21
  cellular viraemia (p24): - (the amount of p24 detected is at least 95% less than the values obtained in the untreated control cultures)
HIV (cellular viraemia); patient three + MS, day 28
  cellular viraemia (p24): - (the amount of p24 detected is at least 95% less than the values obtained in the untreated control cultures)
HIV (cellular viraemia); patient two + MS, day 0
  cellular viraemia (p24): - (the amount of p24 detected is at least 95% less than the values obtained in the untreated control cultures)
HIV (cellular viraemia); patient two + MS, day 7
  cellular viraemia (p24): - (the amount of p24 detected is at least 95% less than the values obtained in the untreated control cultures)
HIV (cellular viraemia); patient two + MS, day 14
  cellular viraemia (p24): - (the amount of p24 detected is at least 95% less than the values obtained in the untreated control cultures)
HIV (cellular viraemia); patient two + MS, day 21
  cellular viraemia (p24): - (the amount of p24 detected is at least 95% less than the values obtained in the untreated control cultures)
HIV (cellular viraemia); patient two + MS, day 28
  cellular viraemia (p24): - (the amount of p24 detected is at least 95% less than the values obtained in the untreated control cultures)
chymotrypsin
  inhibition of chymotrypsin: does not inhibit
Reverse transcriptase
  direct action on reverse transcriptase activity: no direct action
gp120
  membrane expression of gp120: substantially reduces
HeLa-Ohio cells
  cytotoxic effect: no cytotoxic effect
HRV14 [2]; added 1 hour after infection
  concentration from which cytopathogenic effects are completely inhibited: ≥ 10 µM
HRV14 [2]; added 1 hour after infection, read-out: IC50 (50% inhibition of the cytopathogenic effect)
  IC50: 5 µM
HRV14 [2]; addition before, at time of, or after infection
  stage of action on HRV14 by time of addition: acts essentially during viral proliferation
Human thymocytes; even at 10 μM, PHA, anti-CD2 or anti-CD3 activated
  distribution of the CD4 and CD8 cells in uninfected thymocytes: does not significantly modify
Human thymocytes; up to 10 μM
  CD4+ CD8+ population in uninfected thymocytes: slight increase
